Consider three molecules from patent US5686104A, “Stable oral CI-981 formulation and process of preparing same” (Warner-Lambert Company, priority 1994, dated 1997).

Molecules are shown by their SMILES. Structures can show the parent of a compound that is named as a salt.

The test system of data set [1] is sterol synthesis (rat liver homogenate). As to conditions: read-out: IC50, concentration required for 50% inhibition of sterol synthesis, one-hour period, data disclosed in U.S. Pat. No. 5,273,995; cited from earlier work.
Data set [2] is described as follows: Stability of the hydroxy acid compounds in acidic environment, under light, or in wet-granulated compositions (statement). The note with it: no calcium carbonate. Type of data set: physicochemical.

Regarding `CC(C)c1c(C(=O)Nc2ccccc2)c(-c2ccccc2)c(-c2ccc(F)cc2)n1CC[C@H](O)C[C@H](O)CC(=O)O` [[S-(R*R*)] isomer], the IC50 in data set [1] is 440 nM.

For the molecule `CC(C)c1c(C(=O)Nc2ccccc2)c(-c2ccccc2)c(-c2ccc(F)cc2)n1CC[C@@H](O)C[C@@H](O)CC(=O)O` [CI-981 Hemi-Calcium, [R-(R*,R*)]-2-(4-fluorophenyl)-β,δ-dihydroxy-5-(1-methylethyl)-3-phenyl-4-[(phenylamino)carbonyl]-1H-pyrrole-1-heptanoic acid hemicalcium salt], in data set [2], the “degradation in compositions prepared by the wet-granulation method” value is listed as “degrades rapidly”. Besides, in data set [1], the IC50 is 4.4 nM. As to `CC(C)c1c(C(=O)Nc2ccccc2)c(-c2ccccc2)c(-c2ccc(F)cc2)n1CC[C@@H](O)C[C@@H](O)CC(=O)O` (relative stereo) [Racemate], in data set [1], the IC50 was 45 nM.
